Experiments:
[1] = test system: HSC-2 human oral cancer cell line; assay: MTT cell viability assay, HSC-2; type: cell-based
Experimental: (§1) HSC-2 human oral cancer cell line, T24 human bladder cancer cell line, and A549 human lung cancer line were cultured in DMEM/F12 medium and supplemented with 10% fetal bovine serum and 50 μg/mL gentamicin at 37 °C in a humidified 5% CO2 incubator. For each compound tested, powder was dissolved in DMSO at 100 mM concentration. This stock solution was then diluted in culture medium to final concentration values ranging between 1 µM and 100 µM. For each sample, DMSO was kept constant at 0.1% final concentration. The day before starting treatment, cells were seeded in 96-well plates, at a density of 2000 cells/well. Cells were allowed to attach overnight and then incubated with compounds at different concentrations, or with DMSO only, for 24, 48, and 72 h. All experiments were performed in triplicate.
(§2) Cell proliferation was determined using a colorimetric assay with 3-(4,5-dimethylthiazol-2-yl)-2,5-diphenyl tetrazolium bromide (MTT). The MTT assay measures the conversion of MTT to insoluble formazan by dehydrogenase enzymes of the intact mitochondria of living cells. Cell proliferation was evaluated by measuring the conversion of the tetrazolium salt MTT to formazan crystals upon treatment with compounds or DMSO only for 24, 48, and 72 h. Briefly, cells were incubated for 2 h at 37 °C with 100 µL fresh culture medium containing 5 µL of MTT reagent (5 mg/mL in PBS). The medium was removed and 200 µL isopropanol were added. The amount of formazan crystals formed correlated directly with the number of viable cells. The reaction product was quantified by measuring the absorbance at 540 nm using a plate reader. Experiments were repeated three times. Results were expressed as a percentage of the control (the control equals 100% and corresponds to the absorbance value of each sample at time zero) and presented as mean values ± standard deviation of three independent experiments performed in triplicate.

[2] = test system: T24 human bladder cancer cell line; assay: MTT cell viability assay, T24; type: cell-based
Experimental: as §1, §2

[3] = Ester stability assay in buffer (RP-HPLC); type: physicochemical; details: for percentage of compound peak area present after 16 h of incubation, PBS: PBS buffer pH 7.4, 16 h; for percentage of compound peak area present after 16 h of incubation, PBS / percentage of compound peak area present after 16 h of incubation, Tris: room temperature, 1 mM compound; for hydrolytic stability in buffer (in words): PBS pH 7.4 and Tris pH 8.4, over 16 h; for percentage of compound peak area present after 16 h of incubation, Tris: Tris buffer pH 8.4, 16 h
Experimental: The prodrugs were evaluated for their stability in both PBS buffer at pH 7.4 and Tris buffer at pH 8.4. The compounds were dissolved in DMSO at a concentration of 40 mM and diluted with the respective buffer to a final concentration of 1 mM. Compounds were tested directly (t0) and subsequently every 2 h over a time period of 16 h by HPLC. Compounds were eluted from a Dr. Maisch ReproSil-Pur C18 column (4.6 × 250 mm, 10 μm particle size, Dr. Maisch, Ammerbuch-Entringen, Germany) with the following solvent system at a flow rate of 0.5 mL/min: solvent A, 0.1% trifluoroacetic acid in water/acetonitrile (95:5); solvent B, 0.1% trifluoroacetic acid in water/acetonitrile (5:95). Gradient elution was as follows: 100:0 (A/B) to 0:100 (A/B) over 8 min, 0:100 (A/B) for 1 min, then reversion back to 100:0 (A/B) over 1 min, 100:0 (A/B) for 2 min. The formation of the parent compound was evaluated and normalized by measuring the peak area at 214 nm and comparing it to the initial timepoint.
All prodrugs prepared were first tested for their inhibitory activity against NNMT using a biochemical enzymatic activity assay. […] Both these buffers and pHs have been used in the different biochemical and cellular assays described in this report. Compounds were dissolved in DMSO at a concentration of 40 mM and diluted with the respective buffer to a final concentration of 1 mM. Compound stability was then assessed by RP-HPLC directly (t0) and subsequently every 2 h over a time period of 16 h. […] Even for the rather labile methyl ester 12b, the TML group in 14b results in a decrease in hydrolysis of the methyl ester.

[4] = test system: A549 human lung cancer line; assay: MTT cell viability assay, A549; type: cell-based
Experimental: as §1, §2

pig liver esterase (PLE) = assay: Esterase-mediated hydrolysis to the parent compound (RP-HPLC); type: in vitro ADME
Experimental: The conversion of the prodrugs to the parent compound by esterases was evaluated using pig liver esterase (PLE, 18 U/mg, Sigma-Aldrich, St. Louis, MO, USA) in PBS at pH 7.4. Compounds were dissolved in DMSO at 40 mM, diluted to a final concentration of 2 mM with PBS, and added to an equal volume of a 10 mg/mL solution of PLE in PBS (pH 7.4), resulting in final concentrations of 2.5% DMSO, 1 mM compound, and 5 mg/mL PLE. At different time-points 50 µL aliquots were taken, added to 100 µL acetonitrile to precipitate the proteins, and centrifuged for 5 min at 10,000 rpm. The supernatant was subsequently analyzed by HPLC as described in Section 2.2 above.
The next step was to establish whether compounds 12e and 14e are converted to the parent compound in the presence of an esterase.

NNMT = target: T1, NNMT (Homo sapiens, UniProt P40261); assay: 1-Methylnicotinamide (MNA) quantification in A549 cells (LC-MS); details: A549 lung carcinoma cells; 0.1–100 µM; 24-h treatment (Figure 4)
T1 sequence (P40261 1-264): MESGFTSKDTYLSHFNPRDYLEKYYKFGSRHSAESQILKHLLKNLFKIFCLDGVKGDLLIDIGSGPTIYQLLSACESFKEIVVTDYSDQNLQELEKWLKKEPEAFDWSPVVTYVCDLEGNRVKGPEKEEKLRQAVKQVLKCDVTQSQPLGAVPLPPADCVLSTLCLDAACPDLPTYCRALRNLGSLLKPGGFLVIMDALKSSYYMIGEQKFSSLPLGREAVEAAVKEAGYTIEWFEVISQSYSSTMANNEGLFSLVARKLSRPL
Experimental: Human lung adenocarcinoma line (A549, ATCC, Manassas, VA, USA) was cultured according to the provider’s indications and seeded in 6-well format. […] After incubation, effluent samples were taken and frozen (−80 °C) for further MNA measurement. Cells also were collected, centrifuged (2 × 500 G/5 min.), and frozen both for the measurement of intracellular MNA and for BCA protein assay.
The quantification of 1-methylnicotinamide (MNA), nicotinamide (NA), nicotinic acid (NicA), 1-methyl-2-pyridone-5-carboxamide (Met-2Pyr), and 1-methyl-4-pyridone-5-carboxamide (Met-4Pyr) was performed by applying ultra-high pressure liquid chromatography coupled to tandem mass spectrometry (UPLC-MS) according to the methodology previously described with minor modifications [35]. A UPLC-MS system comprised of a UPLC Ultimate 3000 (Dionex, Thermo Scientific, Waltham, MA, USA) connected to a TSQ Quantum Ultra mass spectrometer (Thermo Scientific, Waltham, MA, USA) equipped with a heated electrospray ionization interface (HESI-II Probe, Waltham, MA, USA) was used. Chromatographic separation of analytes was carried out on an Aquasil C18 analytical column (4.6 mm × 150 mm, 5 mm; Thermo Scientific, Waltham, MA, USA) under isocratic elution using acetonitrile with 0.1% of formic acid (A) and 5 mM ammonium formate in water (B) as mobile phases delivered at the flow rate of 0.8 mL/min (A:B, 80:20, v/v). The cell pellet was resuspended in 60 µL of deionized water and 50 µL of suspension was transferred to a fresh test tube. An amount of 50 µL of effluent sample was used for the measurement of extracellular MNA. The internal standard (IS) containing MNA-d3 was added to each sample (5 µL) obtaining the final concentration of 500 ng/mL. After the sample mixing, the proteins were precipitated using 100 μL of acidified acetonitrile (0.1% of formic acid), and samples were mixed (10 min), cooled at 4 °C (15 min), and finally centrifuged (15,000× g, 15 min, 4 °C). A clear supernatant was transferred to a chromatographic vial and directly injected (5 µL) into UPLC-MS system. […] The concentration of MNA was calculated based on the calibration curve plotted for the analyte as the relationship between the peak area ratios of analyte/IS to the nominal concentration of the analyte. The concentration of analytes was normalized to milligram of proteins, which was assessed using a Pierce^TM BCA Protein Assay Kit (Thermo Fisher, Waltham, MA, USA) and a Synergy4 multiplate reader (BioTek, Winooski, VT, USA). […]
Using this assay, the levels of MNA produced by NNMT in an A549 lung carcinoma cell line can be quantified by means of a sensitive LC-MS method.

With `CC(=O)Oc1cc(C)cc(C)c1C(C)(C)CC(=O)N[C@@H](CCN(C/C=C/c1ccc(C#N)cc1)C[C@H]1O[C@@H](n2cnc3c(N)ncnc32)[C@H](O)[C@@H]1O)C(=O)OC(C)C` [Compound 14e, Isopropyl-(S)-2-(3-(2-acetoxy-4,6-dimethylphenyl)-3-methylbutanamido)-4-((((2R,3S,4R,5R)-5-(6-amino-9H-purin-9-yl)-3,4-dihydroxytetrahydrofuran-2-yl)methyl)((E)-3-(4-cyanophenyl)allyl)amino)butanoate] the “effect on cell viability (MTT)” value ([1]; 100 µM, 24, 48 and 72 h) was “time dependent reduction in cell viability”, the “effect on cell viability (MTT)” value ([1]; 1 and 10 µM, 24, 48 and 72 h) was “no effects” and the “effect on cell viability (MTT)” value ([2]; 100 µM, 24, 48 and 72 h) was “time dependent reduction in cell viability”. The “effect on cell viability (MTT)” value ([2]; 1 and 10 µM, 24, 48 and 72 h) was “no effects”, the “percentage of compound peak area present after 16 h of incubation, PBS” value (“percentage of compound peak area present … PBS” for short) [3] was 91.13% and the “hydrolytic stability in buffer (in words)” value [3] was “most stable”. The “percentage of compound peak area present after 16 h of incubation, Tris” value (from here on “percentage of compound peak area present … Tris”) [3] was 87.69%, the “effect on cell viability (MTT)” value ([4]; 100 µM, 24, 48 and 72 h) was “time dependent reduction in cell viability” and the “effect on cell viability (MTT)” value ([4]; 1 and 10 µM, 24, 48 and 72 h) was “no effects”. For the same molecule, the “time to full conversion to the parent compound” value (pig liver esterase (PLE); 5 mg/mL PLE, PBS pH 7.4, 1 mM compound) was no more than 4 h, the “hydrolysis in the absence of PLE” value (pig liver esterase (PLE); PBS pH 7.4, without PLE) was “no hydrolysis was observed” and the “effect on cellular MNA levels” value (NNMT) was “even further enhanced”.
In the case of `COC(=O)[C@H](CCN(C/C=C/c1ccc(C#N)cc1)C[C@H]1O[C@@H](n2cnc3c(N)ncnc32)[C@H](O)[C@@H]1O)NC(=O)CC(C)(C)c1c(C)cc(C)cc1OC(C)=O` [Compound 14b, Methyl-(S)-2-(3-(2-acetoxy-4,6-dimethylphenyl)-3-methylbutanamido)-4-((((2R,3S,4R,5R)-5-(6-amino-9H-purin-9-yl)-3,4-dihydroxytetrahydrofuran-2-yl)methyl)((E)-3-(4-cyanophenyl)allyl)amino)butanoate], the “percentage of compound peak area present … PBS” value [3] is reported as 88.08% and the “percentage of compound peak area present … Tris” value [3] is reported as 73.88%.
For `N#Cc1ccc(/C=C/CN(CC[C@H](N)C(=O)OCc2ccccc2)C[C@H]2O[C@@H](n3cnc4c(N)ncnc43)[C@H](O)[C@@H]2O)cc1` [Compound 12f, Benzyl-(S)-2-amino-4-((((2R,3S,4R,5R)-5-(6-amino-9H-purin-9-yl)-3,4-dihydroxy-tetrahydrofuran-2-yl)methyl)((E)-3-(4-cyanophenyl)allyl)amino)butanoate], the “percentage of compound peak area present … PBS” value [3] was 33.43%, the “hydrolytic stability in buffer (in words)” value [3] was “least stable” and the “percentage of compound peak area present … Tris” value [3] was 21.60%.
In the case of `CCOC(=O)[C@@H](N)CCN(C/C=C/c1ccc(C#N)cc1)C[C@H]1O[C@@H](n2cnc3c(N)ncnc32)[C@H](O)[C@@H]1O` [Compound 12c, Ethyl-(S)-2-amino-4-((((2R,3S,4R,5R)-5-(6-amino-9H-purin-9-yl)-3,4-dihydroxytetrahydrofuran-2-yl)methyl)((E)-3-(4-cyanophenyl)allyl)amino)butanoate], the “percentage of compound peak area present … PBS” value [3] is reported as 68.36% and the “percentage of compound peak area present … Tris” value [3] is reported as 54.84%.
With `CCCOC(=O)[C@@H](N)CCN(C/C=C/c1ccc(C#N)cc1)C[C@H]1O[C@@H](n2cnc3c(N)ncnc32)[C@H](O)[C@@H]1O` [Compound 12d, Propyl-(S)-2-amino-4-((((2R,3S,4R,5R)-5-(6-amino-9H-purin-9-yl)-3,4-dihydroxy-tetrahydrofuran-2-yl)methyl)((E)-3-(4-cyanophenyl)allyl)amino)butanoate] the “percentage of compound peak area present … PBS” value [3] was 71.96% and the “percentage of compound peak area present … Tris” value [3] was 61.32%.
In the case of `COC(=O)[C@@H](N)CCN(C/C=C/c1ccc(C#N)cc1)C[C@H]1O[C@@H](n2cnc3c(N)ncnc32)[C@H](O)[C@@H]1O` [Compound 12b, Methyl-(S)-2-amino-4-((((2R,3S,4R,5R)-5-(6-amino-9H-purin-9-yl)-3,4-dihydroxy-tetrahydrofuran-2-yl)methyl)((E)-3-(4-cyanophenyl)allyl)amino)butanoate], the “percentage of compound peak area present … PBS” value [3] is reported as 36.97% and the “percentage of compound peak area present … Tris” value [3] is reported as 22.59%.
For `CCCOC(=O)[C@H](CCN(C/C=C/c1ccc(C#N)cc1)C[C@H]1O[C@@H](n2cnc3c(N)ncnc32)[C@H](O)[C@@H]1O)NC(=O)CC(C)(C)c1c(C)cc(C)cc1OC(C)=O` [Compound 14d, Propyl-(S)-2-(3-(2-acetoxy-4,6-dimethylphenyl)-3-methylbutanamido)-4-((((2R,3S,4R,5R)-5-(6-amino-9H-purin-9-yl)-3,4-dihydroxytetrahydrofuran-2-yl)methyl)((E)-3-(4-cyanophenyl)allyl)amino)butanoate], the “percentage of compound peak area present … PBS” value [3] was 90.30% and the “percentage of compound peak area present … Tris” value [3] was 87.52%.
With `CNc1ccc(C(N)=O)cn1` [Compound 6-MANA, 6-methylamino-nicotinamide, reference compound] the “effect on cell viability (MTT)” value ([1]; 100 µM, 24, 48 and 72 h) was “no effect”, the “effect on cell viability (MTT)” value ([1]; 1 and 10 µM, 24, 48 and 72 h) was “no effects” and the “effect on cell viability (MTT)” value ([2]; 100 µM, 24, 48 and 72 h) was “no effect”. For the same molecule, the “effect on cell viability (MTT)” value ([2]; 1 and 10 µM, 24, 48 and 72 h) was “no effects”, the “effect on cell viability (MTT)” value ([4]; 100 µM, 24, 48 and 72 h) was “no effect” and the “effect on cell viability (MTT)” value ([4]; 1 and 10 µM, 24, 48 and 72 h) was “no effects”. For the same molecule, the “effect on cellular MNA levels” value (NNMT) was “high concentrations of both 6-MANA and GYZ-319 are required to substantially decrease the levels of MNA”.
In the case of `CCOC(=O)[C@H](CCN(C/C=C/c1ccc(C#N)cc1)C[C@H]1O[C@@H](n2cnc3c(N)ncnc32)[C@H](O)[C@@H]1O)NC(=O)CC(C)(C)c1c(C)cc(C)cc1OC(C)=O` [Compound 14c, Ethyl-(S)-2-(3-(2-acetoxy-4,6-dimethylphenyl)-3-methylbutanamido)-4-((((2R,3S,4R,5R)-5-(6-amino-9H-purin-9-yl)-3,4-dihydroxytetrahydrofuran-2-yl)methyl)((E)-3-(4-cyanophenyl)allyl)amino)butanoate], the “percentage of compound peak area present … PBS” value [3] is reported as 90.44% and the “percentage of compound peak area present … Tris” value [3] is reported as 87.00%.

Source: PMC8466754, “Esterase-Sensitive Prodrugs of a Potent Bisubstrate Inhibitor of Nicotinamide N-Methyltransferase (NNMT) Display Cellular Activity” (Biomolecules, 2021)
